Format in all cases: cell-based
Data set [1] has as its system panel of HIV-1 isolates in human PBMCs. As to the kind of experiment: PBMC antiviral assay against a panel of HIV-1 isolates (RT activity). The method, then:
Antiviral assays. To produce HIV-1 stocks, 293T cells were transfected with WT pNL4-3 or the SP1-V7A derivative and culture supernatants were collected 24 h post transfection. RT-normalized virus supernatants were used to infect MT-4 cells at room temperature for 30 min. Cells were then cultured in the presence of serial dilutions of compounds. At 4 d post-infection, the culture supernatants were subjected to RT assay to monitor viral replication. The 50% inhibitory concentrations (IC50s) were defined as compound concentrations that reduced RT levels to 50% those measured in the absence of inhibitor (DMSO only controls) using GraphPad Prism 6 software. The IC50s in primary peripheral blood mononuclear cells (PBMCs) were calculated with a multi-clade panel of HIV-1 isolates by Southern Research Institute (Frederick, Md.). The PBMCs were stimulated with phytohemagglutinin (PHA) and IL-2 prior to use in the antiviral assays.
Virus Isolates. Compound evaluation against a panel of HIV-1 isolates were performed by the Southern Research Institute (SRI). The viruses were chosen to include one isolate from each of the seven HIV-1 Group M envelope subtypes A, B, C, D, E, F, and G, as well as isolates from HIV-1 Groups O and N. In addition, various drug resistant HIV-1 isolates were included for evaluation. The HIV-1 isolates selected include CCR5-tropic and CXCR4-tropic isolates. Unless otherwise noted, all virus isolates were obtained from the NIH AIDS Research and Reference Reagent Program. Virus isolate 1022-48 was obtained from Dr. William A. Schief of Merck Research Laboratories. MDR769 and MDR807 were obtained from Dr. Thomas C. Merigan of Stanford University. A low passage stock of each virus was prepared using fresh human PBMCs and stored in liquid nitrogen. Pre-titered aliquots of each virus were removed from the freezer and thawed rapidly to rt in a biological safety cabinet immediately before use.
(§1) Human PBMC Preparation. Fresh human PBMCs were isolated from screened donors, seronegative for HIV and HBV (Biological Specialty Corporation, Colmar, Pa.). Cells were pelleted/washed 2-3 times by low speed centrifugation and resuspension in Dulbecco's phosphate buffered saline (PBS) to remove contaminating platelets. The leukophoresed blood was then diluted 1:1 with PBS and layered over 14 mL of Ficoll-Hypaque density gradient (Lymphocyte Separation Medium, Cell Grow #85-072-CL, density 1.078+/−0.002 g/mL) in a 50 mL centrifuge tube and then centrifuged for 30 min at 600×g. Banded PBMCs were gently aspirated from the resulting interface and subsequently washed twice with PBS by low speed centrifugation. After the final wash, cells were enumerated by trypan blue exclusion and re-suspended at 1×10^6 cells/mL in RPMI 1640 supplemented with 15% Fetal Bovine Serum (FBS), 2 mM L-glutamine, 100 U/mL penicillin, […] streptomycin, and 4 μg/mL Phytohemagglutinin (PHA; Sigma, St. Louis, Mo.; cat #L1668). The cells were allowed to incubate for 48-72 h at 37° C. After incubation, PBMCs were centrifuged and resuspended in RPMI 1640 with 15% FBS, L-glutamine, penicillin, streptomycin, non-essential amino acids (MEM/NEAA; Hyclone; cat #SH30238.01), and 20 U/mL recombinant human IL-2 (R&D Systems Inc., Minneapolis, Minn.; cat #202IL). PBMCs were maintained in this medium at a concentration of 1-2×10^6 cells/mL, with twice-weekly medium changes until they were used in the assay protocol. Monocytes-derived-macrophages were depleted from the culture as the result of adherence to the tissue culture flask.
PBMC Assay. For the standard PBMC assay, PHA stimulated cells from at least two normal donors were pooled (mixed together), diluted in fresh medium to a final concentration of 1×10^6 cells/mL, and plated in the interior wells of a 96 well round bottom microplate at 50 μL/well (5×10^4 cells/well) in a standard formate developed by the Infectious Disease Research Department of the SRI. […]

Data set [2] deals with human PBMCs. The data set is described as follows: in vitro. To be noted: 7 days. How it is done: as §1
(§2) PBMC Assay. For the standard PBMC assay, PHA stimulated cells from at least two normal donors were pooled (mixed together), diluted in fresh medium to a final concentration of 1×10^6 cells/mL, and plated in the interior wells of a 96 well round bottom microplate at 50 μL/well (5×10^4 cells/well) in a standard formate developed by the Infectious Disease Research Department of the SRI. Pooling (mixing) of mononuclear cells from more than one donor was used to minimize the variability observed between individual donors, which results from quantitative and qualitative differences in HIV infection and overall response to the PHA and IL-2 of primary lymphocyte populations. Each plate contains virus control wells (cells plus virus) and experimental wells (drug plus cells plus virus). Test drug dilutions were prepared at a 2× concentration in microtiter tubes and 100 μL of each concentration was placed in appropriate wells using the standard format. 50 μL of a predetermined dilution of virus stock was placed in each test well (final MOI≈0.1). Separate plates were prepared identically without virus for drug cytotoxicity studies using an MTS assay system (described below; cytotoxicity plates also include compound control wells containing drug plus media without cells to control for colored compounds that affect the MTS assay). The PBMC cultures were maintained for seven days following infection at 37° C., 5% CO2. After this period, cell-free supernatant samples were collected for analysis of reverse transcriptase activity, and compound cytotoxicity was measured by addition of MTS to the separate cytotoxicity plates for determination of cell viability. Wells were also examined microscopically and any abnormalities were noted.
(§3) MTS Staining for PBMC Viability to Measure Cytotoxicity. At assay termination, the uninfected assay plates were stained with the soluble tetrazolium-based dye MTS (CellTiter 96 Reagent, Promega) to determine cell viability and quantify compound toxicity. MTS is metabolized by the mitochondria enzymes of metabolically active cells to yield a soluble formazan product, allowing the rapid quantitative analysis of cell viability and compound cytotoxicity. […] At termination of the assay, […] of MTS reagent was added per well and the microtiter plates were then incubated at 37° C., 5% CO2 to assess cell viability. […]

Data set [3] can be described thus: in vitro. Particulars: human. The method, then: as §1, §2, §3
[4] abbreviates: Human immunodeficiency virus 1, IIIB, PBMC, isolate A17 (IIIB).
The mark [5] stands for this setting: Human immunodeficiency virus 1, NL43, PBMC, isolate NL4-3, PBMC.
[6] abbreviates: Human immunodeficiency virus 1, NL43, PBMC, isolate NL4-3 gp41(36G) N42T, N43K, PBMC.
The mark [7] stands for this setting: Human immunodeficiency virus 1, PBMC, isolate 92BR030, PBMC.
Where [8] appears, read: Human immunodeficiency virus 1, PBMC, isolate 92RW009, PBMC.
The mark [9] stands for this setting: Human immunodeficiency virus 1, PBMC, isolate 92UG001, PBMC.
Setting [10] is: Human immunodeficiency virus 1, PBMC, isolate 93BR020, PBMC.
Where [11] appears, read: Human immunodeficiency virus 1, PBMC, isolate 93BR029, PBMC.
Setting [12] is: Human immunodeficiency virus 1, PBMC, isolate 93IN101, PBMC.
Setting [13] is: Human immunodeficiency virus 1, PBMC, isolate 99UGA07412MI, PBMC.
The mark [14] stands for this setting: Human immunodeficiency virus 1, PBMC, isolate 1022-48, PBMC.
[15] abbreviates: Human immunodeficiency virus 1, PBMC, isolate 1064-52, PBMC.
Where [16] appears, read: Human immunodeficiency virus 1, PBMC, isolate 4736_4 (NL4-3), PBMC.
Setting [17] is: Human immunodeficiency virus 1, PBMC, isolate BCF02, PBMC.
[18] abbreviates: Human immunodeficiency virus 1, PBMC, isolate CMU02, PBMC.
The mark [19] stands for this setting: Human immunodeficiency virus 1, PBMC, isolate JV1083, PBMC.
[20] abbreviates: Human immunodeficiency virus 1, PBMC, isolate MDR769, PBMC.
Where [21] appears, read: Human immunodeficiency virus 1, PBMC, isolate YBF30, PBMC.

Counter-ions that a name gives are not always drawn.

`C=C(C)[C@@H]1CC[C@]2(CCNCCN3CCN(Cc4ccccc4)CC3)CC[C@]3(C)[C@H](CC[C@@H]4[C@@]5(C)CC[C@H](OC(=O)CC(C)(C)C(=O)O)C(C)(C)[C@@H]5CC[C@]43C)[C@@H]12` [Compound 51hh, (3β)-17-[2-[[2-[4-(Phenylmethyl)piperazin-1-yl]ethyl]amino]ethyl]-28-norlup-20(29)-en-3-ol, 3-(1-Hydrogen 2,2-Dimethylbutanedioate)]: the IC50 in data set [1] (setting [4]) was 6.1 nM; in data set [1] (setting [5]) it was 1.4 nM; in data set [1] (setting [6]) it was 3.8 nM; in data set [1] (setting [7]), over 1000 nM; in data set [1] (setting [8]) it was 10.4 nM; in data set [1] (setting [9]), 1.2 nM. The IC50 in data set [1] (setting [10]) came out at 3 nM; in data set [1] (setting [11]), 4.1 nM; in data set [1] (setting [12]) it was 5.6 nM; in data set [1] (setting [13]) it was 8 nM; in data set [1] (setting [14]), 3.2 nM; in data set [1] (setting [15]), 1.7 nM. In addition, the IC50 in data set [1] (setting [16]) was found to be 1.4 nM; in data set [1] (setting [17]), 3.8 nM; in data set [1] (setting [18]) it was 11.1 nM; in data set [1] (setting [19]), 17.1 nM; in data set [1] (setting [20]), 4.4 nM; in data set [1] (setting [21]), 132 nM. For the same compound, 7.1 nM corresponded to half-maximal inhibition in data set [1] (isolate CMU02, PBMC) (IC50). In data set [2], this compound displayed a CC50 of over 1000 nM. The same compound returned a CC50 at 7 days in data set [3] of over 1000 nM.

`C=C(C)[C@@H]1CC[C@]2(CCNCCN3CCS(=O)(=O)CC3)CC[C@]3(C)[C@H](CC[C@@H]4[C@@]5(C)CC[C@H](OC(=O)CC(C)(C)C(=O)O)C(C)(C)[C@@H]5CC[C@]43C)[C@@H]12` [Compound 51ee, (3β)-17-[[[2-[2-(1,1-Dioxothiomorpholin-4-yl)]Ethyl]Amino]Ethyl]-28-norlup-20(29)-en-3-ol, 3-(1-Hydrogen 2,2-Dimethylbutanedioate)]: the concentration for half-maximal inhibition (IC50) in data set [1] (setting [4]) is 1.4 nM; in data set [1] (setting [5]) it was 0.8 nM; in data set [1] (setting [6]), 1.3 nM; in data set [1] (setting [7]), 455 nM; in data set [1] (setting [8]) it was 20.7 nM; in data set [1] (setting [9]), 0.4 nM. The IC50 in data set [1] (setting [10]) amounted to 1.8 nM; in data set [1] (setting [11]), 0.9 nM; in data set [1] (setting [12]), 2.7 nM; in data set [1] (setting [13]) it was 2.2 nM; in data set [1] (setting [14]), 1.1 nM; in data set [1] (setting [15]), 0.5 nM. The IC50 is 1 nM in data set [1] (setting [16]); 1.7 nM in data set [1] (setting [17]); 110 nM in data set [1] (setting [18]); 126 nM in data set [1] (setting [19]); 1.4 nM in data set [1] (setting [20]); 8.4 nM in data set [1] (setting [21]). This compound yielded a CC50 in data set [2] of over 1000 nM. In addition, the CC50 at 7 days in data set [3] is over 1000 nM.

Turning to `C=C(C)[C@@H]1CC[C@]2(CCNC3CCN(CCO)CC3)CC[C@]3(C)[C@H](CC[C@@H]4[C@@]5(C)CC[C@H](OC(=O)CC(C)(C)CC(=O)O)C(C)(C)[C@@H]5CC[C@]43C)[C@@H]12` [Compound 51f, (3β)-17-[2-[[1-(2-Hydroxyethyl)piperidin-4-yl]amino]ethyl]-28-norlup-20(29)-en-3-ol, 3-(Hydrogen 3,3-Dimethylpentanedioate), Bis(trifluoroacetate) Salt], the IC50 in data set [1] (setting [4]) is 8.2 nM; in data set [1] (setting [5]), 4 nM; in data set [1] (setting [6]), 5.6 nM; in data set [1] (setting [7]) it was 100 nM; in data set [1] (Human immunodeficiency virus 1, PBMC, isolate 92UG031, PBMC), over 1000 nM; in data set [1] (setting [11]), 5.1 nM. The IC50 in data set [1] (setting [12]) came out at 89 nM; in data set [1] (setting [13]), 8.2 nM; in data set [1] (setting [14]), 18.9 nM; in data set [1] (setting [16]), 3.3 nM; in data set [1] (setting [17]) it was 4.6 nM; in data set [1] (setting [18]), 316 nM. Also, the concentration for half-maximal inhibition (IC50) in data set [1] (setting [19]) was 477 nM; in data set [1] (setting [20]), 5.9 nM; in data set [1] (Human immunodeficiency virus 1, PBMC, isolate MDR807, PBMC), over 1000 nM; in data set [1] (setting [21]), 14.8 nM. The CC50 in data set [2] was over 1000 nM. The CC50 at 7 days in data set [3] is over 1000 nM.

As to `C=C(C)[C@@H]1CC[C@]2(CCNCCN3CCN(S(C)(=O)=O)CC3)CC[C@]3(C)[C@H](CC[C@@H]4[C@@]5(C)CC[C@H](OC(=O)CC(C)(C)C(=O)O)C(C)(C)[C@@H]5CC[C@]43C)[C@@H]12` [Compound 51ff, (3β)-17-[2-[[2-[4-(Methylsulfonyl)piperazin-1-yl]ethyl]amino]ethyl]-28-norlup-20(29)-en-3-ol, 3-(1-Hydrogen 2,2-Dimethylbutanedioate)], the half-maximal inhibitory concentration (IC50) was 1.8 nM in data set [1] (setting [4]); 0.8 nM in data set [1] (setting [5]); 1.4 nM in data set [1] (setting [6]); over 1000 nM in data set [1] (setting [7]); 39.4 nM in data set [1] (setting [8]); under 0.15 nM in data set [1] (setting [9]). Further, the IC50 is 2.4 nM in data set [1] (setting [10]); 1.1 nM in data set [1] (setting [11]); 14.2 nM in data set [1] (setting [12]); 4.3 nM in data set [1] (setting [13]); 1.3 nM in data set [1] (setting [14]); 0.7 nM in data set [1] (setting [15]). The IC50 stood at 0.8 nM in data set [1] (setting [16]); 2.8 nM in data set [1] (setting [17]); 217 nM in data set [1] (setting [18]); 460 nM in data set [1] (setting [19]); 1.7 nM in data set [1] (setting [20]); 3.6 nM in data set [1] (setting [21]). This compound displayed a half-maximal cytotoxic concentration (CC50) in data set [2] of over 1000 nM. Further, in data set [3], the CC50 at 7 days was over 1000 nM.

For the origin of these results see patent publication US11236122B2, “Triterpene amine derivatives” (DFH THERAPEUTICS, priority 2018, dated 2022).
